Data: patent publication US7214771B2, “Nucleic acid and protein expression thereby and their involvement in stress” (University of Medicine & Dentistry of New Jersey, priority 1999, dated 2007)

Experiments:
RIAZ = assay: Localization of GFP/RIAZ in HTB-46 cells cotransfected with RIα (fluorescence microscopy); format: cell-based, human; conditions: HTB-46 cells cotransfected with RIα and GFP/RIAZ; cAMP for 8 hr
Procedure: FIG. 10 depicts the effect of RIα and cAMP on localization of RIAZ. GJP fusions at the N-terminus (GFP/RIAZ) and the C-terminus (RIAZ/GFP) were generated. […] Localization of GFP/RIAZ on co-transfection with RIα is redistributed to the nucleus on addition of cAMP(Panel D). In more detail, nuclear localization of RIAZ and regulation of its localization by RIα in the presence or absence of cAMP was performed as follows: (A,B) HTB-46 cells were plated the night before and then transfected with GFP/RIAZ the following day. Localization of RIAZ was visualized 24 hr after transfection using a fluorescence microscope. (C) HTB-46 cells were cotransfected with RIα and GFP/RIAZ in the absence of cAMP. (D) RIAZ distribution after addition of cAMP for 8 hr.
To further understand the mechanisms of interaction of RIα with RIAZ, we constructed a hybrid protein between RIAZ and the green fluorescence protein (GFP), with GFP fused to either the N-terminal (GFP/RIAZ) or the C-terminal (RIAZ/GFP) end of RIAZ. Distribution of RIAZ was visualized using a Zeiss Axioskop fluorescence microscope. […] Even though the nuclear localization of RIAZ was not affected by the position of GFP either at the amino or the carboxy terminal end of RIAZ, however, whether the transcriptional activity of RIAZ may be affected remains to be determined. […]

[1] = tested on: human ovarian cancer cells; conditions: cited from earlier work
[2] = tested on: human bladder cancer and human testicular embryonal germ cell carcinoma; conditions: simultaneous cisplatin and dipyridamole; high concentrations of dipyridamole; cited from earlier work
RIα = target: T1, RIα (Homo sapiens, UniProt P10644); assay: Binding of in vitro-translated RIAZ to immobilized GST-RIα (pull down); conditions: [35S]methionine labeled RIAZ; GST as control
T1 construct: made in house; host or cells: E. coli (GST-RIα); RIAZ made by in vitro translation
T1 sequence (P10644 whole entry): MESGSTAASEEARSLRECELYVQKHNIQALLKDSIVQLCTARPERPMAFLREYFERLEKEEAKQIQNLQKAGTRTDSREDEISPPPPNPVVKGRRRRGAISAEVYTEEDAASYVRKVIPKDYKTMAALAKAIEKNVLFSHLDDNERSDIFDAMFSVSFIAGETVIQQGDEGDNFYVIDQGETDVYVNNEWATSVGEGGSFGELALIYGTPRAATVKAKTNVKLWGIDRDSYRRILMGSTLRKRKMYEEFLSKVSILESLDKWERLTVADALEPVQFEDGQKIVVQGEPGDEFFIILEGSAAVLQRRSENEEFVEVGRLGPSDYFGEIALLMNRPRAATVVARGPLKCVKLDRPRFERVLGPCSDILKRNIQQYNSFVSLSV
Procedure: FIG. 8. Binding of in-vitro translated RIAZ protein to RIα. GST and GST-RIα proteins were immobilized on glutathione resins and then incubated with [^35S]methinine labeled RIAZ. The complexes were thoroughly washed and eluted in gel-loading buffer, separated by SDS-PAGE, and exposed to X-ray film.
Deletion of a cluster of ATG in the 5′ end of the RIAZ cDNA seemed to enhance translation from the putative ATG start codon of the open reading frame that encode the BTB-POZ domain zinc finger. […] In addition, based on the functions of other BTB-POZ zinc finger proteins in this family, which play various roles in apoptosis, transcription repression, and regulation of cell proliferation, we speculate that RIAZ may have a role in these important cellular functions. Since the emergence of drug resistance in cancer is also intimately influenced by apoptosis, alterations in cellular transcription programs and tumorigenesis, therefore, it is conceivable that RIα mediated drug resistance may be executed through the actions of RIAZ. Biochemical and molecular characterizations of the interaction of RIAZ with RI and its function and significance in drug resistance may yield insights into the mechanisms of this novel cAMP signaling pathway.

Molecule: Nc1ncnc2c1nc(Br)n2[C@@H]1O[C@@H]2COP(=O)(O)O[C@H]2[C@H]1O [8-Br-cAMP]
- RIAZ subcellular distribution after treatment (RIAZ): translocate to the nucleus

Molecule: CC(C)Cn1c(=O)n(C)c(=O)c2[nH]cnc21 [3-isobutyl-1-methylxanthine]
- effect on cisplatin sensitivity ([1]; treated ovarian carcinoma cells compared to untreated cells): increase in cisplatin sensitivity

Molecule: OCCN(CCO)c1nc(N2CCCCC2)c2nc(N(CCO)CCO)nc(N3CCCCC3)c2n1 [dipyridamole]
- tumor response in combination with cisplatin [2]: complete tumor regression
- effect on growth of cisplatin-resistant cells ([1]; dipyridamole treatment, cisplatin-resistant cells): did not affect the growth

B1: RIAZ: novel BTB-POZ domain zinc finger protein of 641 amino acids, SEQ ID NO: 17 (protein, listed as Homo sapiens)
chain: MERVNDASCGPSGCYTYQVSRHSTEMLHNLNQQRKNGGRFCDVLLRVGDESFPAHRAVLAACSEYFESVFSAQLGDGGAADGGPADVGGATAAPGGGAGGSRELEMHTISSKVFGDILDFAYTSRIVVRLESFPELMTAAKFLLMRSVIEICQEVIKQSNVQILVPPARADIMLFRPPGTSDLGFPLDMTNGAALAANSNGIAGSMQPEEEAARAAGAAIAGQASLPVLPGVDRLPMVAGPLSPQLLTSPFPSVASSAPPLTGKRGRGRPRKANLLDSMFGSPGGLREAGILPCGLCGKVFTDANRLRQHEAQHGVTSLQLGYIDLPPPRLGENGLPISEDPDGPRKRSRTRKQVACEICGKIFRDVYHLNRHKLSHSGEKPYSCPVCGLRFKRKDRMSYHVRSHDGSVGKPYICQSCGKGFSRPDHLNGHIKQVHTSERPHKCQTCNASFATRDRLRSHLACHEDKVPCQVCGKYLRAAYMADHLKKHSEGPSNFCSICNREGQKCSHQDPIESSDSYGDLSDASDLKTPEKQSANGSFSCDMAVPKNKMESDGEKKYPCPECGSFFRSKSYLNKHIQKVHVRALGGPLGDLGPALGSPFSPQQNMSLLESFGFQIVQSAFASSLVDPEVDQQPMGPEGK
- binding to GST-RIα (RIα): showed binding to GST-RIα but not to GST control
